SMILES strings stand for the structures. Values joined by “and” are separate entries in the source; they are usually repeats but may differ in a detail not shown here. Identical values can stand only once.

For series [1], the system named is MCF-7 breast carcinoma cell line. Nature of the series: MTT cytotoxic activity against MCF-7 breast carcinoma cell line. It is filed as cell-based. The following applies: Homo sapiens, MCF7; MTT assay, MCF-7 cells, 24 h incubation. The procedure: Cytotoxic activity of the synthesized acrylate derivatives 5a–6i was evaluated against the MCF-7 breast carcinoma cell line using the MTT colorimetric assay. CA-4 was included as a positive control. The results were summarized as IC50 values in Table 1.
Antiproliferative activity of the constructed acrylate molecules 5a–6i was determined on MCF-7 cell line as reported previously.[38] See ESI Appendix A. ^† […]
(§1) S4.2.1. Cytotoxic activity evaluation
To measure the cytotoxic actvity of the synthesized acrylate derivatives 5a,b and 6a-i in breast cancer (MCF-7) cell line. Cell viability assay was assessed using MTT assay method. Cells at density of 1 x 104 were seeded in a 96-well plate at 37 °C for 24 h under 5% CO2. After incubation, the cells were treated with different concentrations of the test acrylate derivatives 5a-6i and incubated for 24 h, then 20 µl of MTT solution at 5 mg/mL was applied and incubated for 4 h at 37 °C. Dimethyl sulphoxide (DMSO) in volume of 100 µl was added to each well to dissolve the purple formazan that had formed. The color intensity of the formazan product, which represents the growth condition of the cells, is quantified by using an ELISA plate reader (EXL 800, USA) at 570 nm absorbance. The experimental conditions were carried out with at least three replicates, and the experiments were repeated at least three times. […]

Another series deals with MCF-10A. Put plainly: MTT cytotoxic activity against MCF-10A cells. In kind it is cell-based. The following applies: Homo sapiens, MTT assay. A general note: Tetrazolium dyes change colour on reduction, which living cells bring about.
A further series has as its system Bcl-2. Put plainly: qRT-PCR gene expression of Bcl-2 in MCF-7 cells. In kind it is cell-based. Particulars: 2.57 μM, 48 h. An excerpt: (§2) p53, Bax and Bcl-2 play a key role in controlling intrinsic mitochondrial cellular death.[36] […] During the apoptotic process, these mediators have opposing effects. p53 and Bax have proapoptotic impacts, while Bcl-2 has anti-apoptotic effects. […] This assay utilized the quantitative real time reverse transcriptase PCR (qRT-PCR) assay. […] On the other hand, compound 6e decreased the level of anti-apoptotic gene Bcl-2 level by 0.38-fold less than untreated cells.
(§3) The MCF-7 cell line was used for measurement of the expression levels of Apoptotic markers. […]
(§4) S4.2.5. qRT-PCR measurements of p53, Bax and Bcl2 for compound 6e
(§5) Real-time PCR for p53, BAX and Bcl-2 genes expression was done using commercial Qiagen RNA extraction/ BioRad SYBER green PCR master mix according manufacturer's instructions. Briefly, 2 µl of cDNA template, 10 pMol of each forward and reverse primer, 10 µl of 2X Master Mix and to 20 µl total reaction mixture volume by nuclease free water and then was introduced to thermal cycler instrument (Thermo Scientific, USA). The cycling parameters for the PCR amplification were achieved by initial denaturation at 95 °C for 3 minutes followed by 40 cycles of 94 °C for 15 seconds and annealing/extension step at 60 °C for 1 min. Relative quantification of target genes was run on Rotor-Gene 6000 Series Software 1.7 (Build […]
(§6) Table 1: The primer sequences for Real Time PCR assay
On the technique in general: Real-time PCR tracks product formation cycle by cycle.

In another series the target is T1, β-tubulin (Homo sapiens, UniProt P07437).
T1 construct: utilizing MCF-7 breast carcinoma cells; endogenous in cells; host or cells: MCF-7 breast carcinoma cells
T1 sequence (P07437 whole entry): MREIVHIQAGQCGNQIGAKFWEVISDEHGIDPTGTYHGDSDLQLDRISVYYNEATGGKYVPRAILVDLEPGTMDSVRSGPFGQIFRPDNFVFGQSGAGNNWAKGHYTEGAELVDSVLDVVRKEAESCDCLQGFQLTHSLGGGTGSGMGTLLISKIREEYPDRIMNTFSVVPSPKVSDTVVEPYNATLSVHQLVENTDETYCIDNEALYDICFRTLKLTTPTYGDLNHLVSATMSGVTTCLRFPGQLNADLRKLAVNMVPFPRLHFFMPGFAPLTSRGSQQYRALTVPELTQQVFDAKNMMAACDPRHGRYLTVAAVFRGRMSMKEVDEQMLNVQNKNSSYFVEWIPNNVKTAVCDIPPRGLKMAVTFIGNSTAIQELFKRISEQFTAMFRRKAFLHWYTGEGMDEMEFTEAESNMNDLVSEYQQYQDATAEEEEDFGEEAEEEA
T1 sequence (P68363 whole entry partner): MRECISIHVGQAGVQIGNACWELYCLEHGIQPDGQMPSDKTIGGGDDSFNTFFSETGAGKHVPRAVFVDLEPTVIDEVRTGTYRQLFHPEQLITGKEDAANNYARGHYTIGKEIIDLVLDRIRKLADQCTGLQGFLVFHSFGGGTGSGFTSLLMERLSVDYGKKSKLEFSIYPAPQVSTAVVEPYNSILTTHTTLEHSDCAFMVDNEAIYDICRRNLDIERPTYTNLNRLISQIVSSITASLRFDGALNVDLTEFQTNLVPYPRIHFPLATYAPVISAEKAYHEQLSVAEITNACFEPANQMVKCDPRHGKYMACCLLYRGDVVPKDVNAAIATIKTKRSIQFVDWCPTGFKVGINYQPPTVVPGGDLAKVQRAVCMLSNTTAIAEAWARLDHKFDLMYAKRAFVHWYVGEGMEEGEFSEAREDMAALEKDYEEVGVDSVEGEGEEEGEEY
Nature of the series: β-tubulin polymerization inhibition in MCF-7 cells (Human Beta-tubulin SimpleStep ELISA kit). In kind it is cell-based. The following applies: 48 h; for β-tubulin polymerization inhibition percentage: at IC50 concentration.
Text: The disruption of the cellular microtubule structure and, more importantly, microtubule function that result from inhibiting β-tubulin polymerization leads to the triggering of cellular apoptosis.[30,31] Inhibition of tubulin polymerization has been identified as a possible therapeutic target for the creation of new cancer therapies.[32]
as §1
(§7) To measure the cytotoxic actvity of the synthesized acrylate derivatives 5a,b and 6a-i in breast cancer (MCF-7) cell line. Cell viability assay was assessed using MTT assay method. Cells at density of 1 x 104 were seeded in a 96-well plate at 37 °C for 24 h under 5% CO2. After incubation, the cells were treated with different concentrations […]
(§8) solution at 5 mg/mL was applied and incubated for 4 h at 37 °C. Dimethyl sulphoxide (DMSO) in volume of 100 µl was added to each well to dissolve the purple formazan that had formed. The color intensity of the formazan product, which represents the growth condition of the cells, is quantified by using an ELISA plate reader (EXL 800, USA) at 570 nm absorbance. The experimental conditions were carried out with at least three replicates, and the experiments were repeated at least three times.
(§9) S4.2.2. Tubulin polymerization Assay
(In an ELISA, binding on a coated surface is turned into a signal by an enzyme label.)

The test system of another series is Bax. Nature of the series: qRT-PCR gene expression of Bax in MCF-7 cells. The following applies: 2.57 μM, 48 h. It is filed as cell-based.
Text: as §2, §3, §4, §5, §6

Another series relates to Bax/Bcl-2. Nature of the series: Bax/Bcl-2 ratio from qRT-PCR in MCF-7 cells. It is filed as cell-based. Particulars: 2.57 μM, 48 h.
Text: as §2, §3, §4, §5, §6

Another series has as its system p53. Put plainly: qRT-PCR gene expression of p53 in MCF-7 cells. It is filed as cell-based. Particulars: 2.57 μM, 48 h.
Text: as §2, §3, §4, §5, §6

Series [2] relates to MCF-7 breast carcinoma cells. Put plainly: Annexin V-FITC/PI apoptosis assay in MCF-7 cells. In kind it is cell-based. The following applies: 2.57 μM, 48 h. The procedure: as §1, §7, §8
S4.2.2. Tubulin polymerization Assay […]
to manufacturer’s instructions using # abcam Human Beta-tubulin simplestep ELISA […]
(§10) S4.2.3. Cell cycle analysis of compound 6e
Cell cycle analysis in MCF-7 cells was investigated using fluorescent Annexin V-FITC/ PI detection kit (BioVision EZCellTM Cell Cycle Analysis Kit Catalog #K920) by flow cytometry assay. MCF-7 cells at a density of 2 × 10^5 per well were harvested and washed twice in PBS. […]
immediately analyzed using FACS Calibur flow cytometer (Becton and Dickinson, […]

Series [3] relates to MCF-7 breast carcinoma cells. Nature of the series: Flow cytometric cell cycle analysis of MCF-7 cells. In kind it is cell-based. The following applies: 2.57 μM, 48 h. The method, then:
The MCF-7 cell line was used for cell cycle analysis. Assay was carried out as reported previously.[39] See ESI Appendix A. ^† […]
as §1
To measure the cytotoxic actvity of the synthesized acrylate derivatives 5a,b and 6a-i in breast cancer (MCF-7) cell line. Cell viability assay was assessed using MTT assay method. Cells at density of 1 x 104 were seeded in a 96-well plate at 37 °C for 24 h under 5% CO2. After incubation, the cells were treated with different concentrations of the test acrylate derivatives 5a-6i and incubated for 24 h, then 20 µl of MTT solution at 5 mg/mL was applied and incubated for 4 h at 37 °C. Dimethyl sulphoxide (DMSO) in volume of 100 µl was added to each well to dissolve the purple formazan that had formed. The color intensity of the formazan product, which represents the growth condition of the cells, is quantified by using an ELISA plate reader (EXL 800, USA) at 570 nm absorbance. The experimental conditions were carried out with at least three replicates, and the experiments were repeated at least three times.
as §9
Compound 6e and CA-4 were evaluated for their tubulin inhibitory activity according to manufacturer’s instructions using # abcam Human Beta-tubulin simplestep ELISA […]
as §10
Cell cycle analysis in MCF-7 cells was investigated using fluorescent Annexin V-FITC/ PI detection kit (BioVision EZCellTM Cell Cycle Analysis Kit Catalog #K920) by flow cytometry assay. MCF-7 cells at a density of 2 × 10^5 per well were harvested and washed twice in PBS. After that, the cells were incubated at 37 °C and 5% CO2.
The medium was incubated with the tested compound 6e at ita IC50 (µM) for 48 h, washed twice in PBS, fixed with 70% ethanol, rinsed again with PBS. Afterward, medium was stained with DNA fluorochrome PI for 15 min at 37 °C. The samples were immediately analyzed using Facs Calibur flow cytometer (Becton and Dickinson, Heidelberg, Germany).
S4.2.4. Apoptosis assay for compound 6e […]

For `COc1ccc(C(=O)N/C(=C\c2ccc(OC)c(OC)c2OC)C(=O)O)cc1OC` [5a, (Z)-2-(3,4-Dimethoxybenzamido)-3-(2,3,4-trimethoxyphenyl)acrylic acid], the melting point lay within 201 to 203 °C. Besides, half-maximal inhibition in [1] (IC50) was put at 9.31 ± 0.35 µM.
`COc1cc(C(=O)N/C(=C\c2ccc(OC)c(OC)c2OC)C(=O)O)cc(OC)c1OC` [5b, (Z)-2-(3,4,5-Trimethoxybenzamido)-3-(2,3,4-trimethoxyphenyl)acrylic acid] came in with a melting point of 217 to 219 °C. In addition, the IC50 in series [1] came out at 5.12 ± 0.32 µM.
With `COC(=O)/C(=C/c1ccc(OC)c(OC)c1OC)NC(=O)c1ccc(OC)c(OC)c1` [6a, (Z)-Methyl 2-(3,4-dimethoxybenzamido)-3-(2,3,4-trimethoxyphenyl)acrylate], the melting point fell in the range of 177 to 179 °C. This compound also had an IC50 in series [1] of 6.74 ± 0.78 µM.
`CCOC(=O)/C(=C/c1ccc(OC)c(OC)c1OC)NC(=O)c1ccc(OC)c(OC)c1` [6b, (Z)-Ethyl 2-(3,4-dimethoxybenzamido)-3-(2,3,4-trimethoxyphenyl)acrylate] yielded a melting point of 154 to 156 °C. This compound registered an IC50 in series [1] of 17.1 ± 0.49 µM.
In turn, `CCCOC(=O)/C(=C/c1ccc(OC)c(OC)c1OC)NC(=O)c1ccc(OC)c(OC)c1` [6c, (Z)-Propyl 2-(3,4-dimethoxybenzamido)-3-(2,3,4-trimethoxyphenyl)acrylate] yielded a melting point of 119 to 121 °C. The same compound displayed an IC50 in series [1] of 20.3 ± 0.44 µM.
`CCCCOC(=O)/C(=C/c1ccc(OC)c(OC)c1OC)NC(=O)c1ccc(OC)c(OC)c1` [6d, (Z)-Butyl 2-(3,4-dimethoxybenzamido)-3-(2,3,4-trimethoxyphenyl)acrylate] yielded a melting point of 132 to 134 °C. This compound showed an IC50 in series [1] of 42.1 ± 0.96 µM.
Regarding `COC(=O)/C(=C/c1ccc(OC)c(OC)c1OC)NC(=O)c1cc(OC)c(OC)c(OC)c1` [6e, (Z)-Methyl 2-(3,4,5-trimethoxybenzamido)-3-(2,3,4-trimethoxyphenyl)acrylate], the figures for the IC50 (in the series with MCF-10A; in series [1]) were 19.1 ± 0.31 µM and 2.57 ± 0.16 µM, respectively. Moreover, in the series on Bcl-2, the “Bcl-2 gene expression level, fold relative to untreated cells (decrease)” value turned out to be 0.38 fold. Further, the “fold decrease in the level of β-tubulin polymerization compared to untreated control cells” value on β-tubulin (2.57 μM) is 5.73 fold. On β-tubulin, the “β-tubulin polymerization inhibition percentage” value turned out to be 81.16%. The “Bax gene expression level, fold relative to untreated control cells” value with Bax came to 3.99 fold. In the series with Bax/Bcl-2, the “increase of the ratio of Bax/Bcl-2 compared to untreated cells” value is on record as 10.5 fold. Besides, the “p53 gene expression level, fold relative to untreated control cells” value with p53 was determined as 6.18 fold. Also, in [2] (control 0.24%), the “late stage apoptotic cells” value is listed as 23.28%. Further, the “early stage apoptotic cells” value in series [2] (control 0.38%) is 14.55%. Further, in [3] (control 8.20%), the “cell population in G2/M phase” value is reported as 29.96%. The “cell population in S phase” value in series [3] (control 26.88%) was determined as 22.06%. Besides, in [3] (control 54.92%), the “cell population in G1 phase” value is given as 47.98%.
`CCOC(=O)/C(=C/c1ccc(OC)c(OC)c1OC)NC(=O)c1cc(OC)c(OC)c(OC)c1` [6f, (Z)-Ethyl 2-(3,4,5-trimethoxybenzamido)-3-(2,3,4-trimethoxyphenyl)acrylate] had a melting point of 127 to 129 °C. Also, in [1], the IC50 was determined as 3.26 ± 0.21 µM.
For `CCCOC(=O)/C(=C/c1ccc(OC)c(OC)c1OC)NC(=O)c1cc(OC)c(OC)c(OC)c1` [6g, (Z)-Propyl 2-(3,4,5-trimethoxybenzamido)-3-(2,3,4-trimethoxyphenyl)acrylate] the same measures were 111 to 113 °C and 11.3 ± 0.75 µM.
In the case of `COc1cc(C(=O)N/C(=C\c2ccc(OC)c(OC)c2OC)C(=O)OC(C)C)cc(OC)c1OC` [6h, (Z)-Isopropyl 2-(3,4,5-trimethoxybenzamido)-3-(2,3,4-trimethoxyphenyl)acrylate], the melting point is 105 to 107 °C. This compound also yielded a concentration for half-maximal inhibition (IC50) in series [1] of 7.08 ± 0.29 µM.
Consider `CCCCOC(=O)C(=Cc1ccc(OC)c(OC)c1OC)NC(=O)c1cc(OC)c(OC)c(OC)c1` [6i, Butyl 2-(3,4,5-trimethoxybenzamido)-3-(2,3,4-trimethoxyphenyl)acrylate], for which the melting point lay within 118 to 120 °C. Half-maximal inhibition in [1] (IC50) was put at 33 ± 1.03 µM.
For the compound `COc1ccc(/C=C\c2cc(OC)c(OC)c(OC)c2)cc1O` [CA-4, combretastatin A-4, reference compound], the IC50 with MCF-10A was 13.2 ± 0.19 µM; in series [1], 1.25 ± 0.08 µM. In addition, the “β-tubulin polymerization inhibition percentage” value at β-tubulin was 89.17% and 82.82%.

The IC50 is the concentration that inhibits the measured activity by half. A low value points to greater potency. One may read the melting point as the temperature of the solid-liquid transition.

The values are drawn from publication PMC10402871, “Design, synthesis and antiproliferative screening of newly synthesized acrylate derivatives as potential anticancer agents” (RSC Advances, 2023).
